Structures can show the parent of a compound that is named as a salt. Where two headings read alike, the source gives them in different places.
Legend:
[1] = system: Acinetobacter baumannii pittii AG225; test: MIC by broth microdilution, Acinetobacter baumannii; assay type: cell-based; details: strain AG225 Acinetobacter baumannii pittii
[2] = system: A1555G mutant mitochondrial ribosome (human chimeric); test: in-vitro translation assay, human chimeric ribosomes, A1555G mutant mitochondrial decoding site; assay type: biochemical; details: Table 3 (Example 3)
Source text: (§1) The antiribosomal activity of these compounds was investigated with cell-free translation assays using both wild type bacterial ribosomes and hybrid ribosomes carrying eukaryotic decoding A sites enabling the prediction of selectivity.

E coli wild type = test: MIC by broth microdilution, wild type E coli; assay type: cell-based; details: for MIC: Escherichia coli
[3] = system: mitochondrial ribosome (human chimeric); assay type: biochemical; details: for Selectivity for Binding to the Bacterial Ribosome over the Mitochondrial Ribosome: Table 3 (Example 3); for IC50: mitochondrial, Table 4 (Example 3), read-out: IC50 Mit
Source text: as §1

[4] = system: cytosolic ribosome (human chimeric); assay type: biochemical; details: for Selectivity for Binding to the Bacterial Ribosome over the Cytosolic Ribosome: Table 3 (Example 3); for IC50: cytosolic, Table 4 (Example 3), read-out: IC50 Cyt
Source text: as §1

MRSA = test: MIC by broth microdilution, MRSA isolates; assay type: cell-based; details: Staphylococcus aureus, MRSA, Table 1 (Example 3)
N. gonorrhoeae = test: Disk diffusion, N. gonorrhoeae; assay type: cell-based; details: Neisseria gonorrhoeae
P aeruginosa = test: MIC by broth microdilution, P aeruginosa isolates; assay type: cell-based, Pseudomonas aeruginosa; details: strain AG220 Pseudomonas aeruginosa ATCC27853; read-out: MIC AG220 P. aerugin
[5] = system: wild type bacterial ribosomes; test: in-vitro translation assay, bacterial ribosomes; assay type: biochemical; details: for IC50: bacterial ribosome, Table 4 (Example 3), read-out: IC50 Bac; for selectivity for the bacterial ribosome over mitochondrial (wild type, A1555G mutant) and cytosolic ribosomes, in words: compared with the parent compound
Source text: as §1

M. smegmatis SZ380 = test: MIC by broth microdilution, M. smegmatis; details: Mycolicibacterium smegmatis
[6] = system: Enterobacter cloacae AG290; test: MIC by broth microdilution, Enterobacter cloacae; assay type: cell-based; details: strain AG290 Enterobacter cloacae; read-out: MIC AG290 E. cloacae
M. abscessus = test: MIC by broth microdilution, M. abscessus; assay type: cell-based; details: Mycobacteroides abscessus
[7] = system: Klebsiella pneumonia AG215; test: MIC by broth microdilution, Klebsiella pneumonia; assay type: cell-based; details: Klebsiella pneumoniae; strain AG215 Klebsiella pneumonia; read-out: MIC AG215 K. pneumon
[8] = system: E coli carrying specific resistance determinants; test: MIC by broth microdilution, E coli carrying specific resistance determinants; assay type: cell-based; details: for MIC: Escherichia coli
[9] = AG006 Wild type, Table 2 (Example 3), read-out: MIC E coli AG006 Wild type
[10] = AG104 Wild type, Table 2 (Example 3), read-out: MIC E coli AG104 Wild type
[11] = ATCC25922, strain AG212 E. coli (ATCC25922), read-out: MIC AG212 E. coli
[12] = WT, Table 4 (Example 3), read-out: MIC E. coli WT
[13] = WT, Table 5 (Example 3), read-out: MIC E. coli WT
[14] = clinical isolate AG001, Table 1 (Example 3), read-out: MIC E coli AG001
[15] = clinical isolate AG003, Table 1 (Example 3), read-out: MIC E coli AG003
[16] = clinical isolate AG055, Table 1 (Example 3), read-out: MIC E coli AG055
[17] = clinical isolate AG038, read-out: MIC MRSA AG038
[18] = clinical isolate AG039, read-out: MIC MRSA AG039
[19] = clinical isolate AG042, read-out: MIC MRSA AG042
[20] = SZ380, read-out: MIC M. smegmatis SZ380 WT, SZ380 WT, Table 5 (Example 3)
[21] = SZ380, read-out: MIC SZ380 M. smegmatis, strain SZ380 Mycobacterium smegmatis
[22] = ATCC19977, ATCC 19977 WT, Table 5 (Example 3), read-out: MIC M. abscessus ATCC 19977 WT
[23] = read-out: MIC M. abscessus engineered Δeis2
[24] = ATCC, Table 4 (Example 3), read-out: MIC M. abscessus ATCC
[25] = Clin. Isol., Table 4 (Example 3), read-out: MIC M. abscessus Clin. Isol.
[26] = read-out: MIC E coli AG106 AAC(2′)
[27] = read-out: MIC E. coli AAC(2′) AG106
[28] = read-out: MIC E. coli AAC(2′) pH434
[29] = read-out: MIC E. coli AG106 AAC(2′)-Ia
[30] = read-out: MIC E. coli pGB2armA armA
[31] = read-out: MIC E. coli pH434 AAC(2′)-Ib

| SMILES | MIC [1] | Selectivity for Binding to the Bacterial Ribosome over the Mutant Mitochondrial Ribosome [2] | MIC (E coli wild type; [9]) | MIC (E coli wild type; [10]) | MIC (E coli wild type; [11]) | MIC (E coli wild type; [12]) | MIC (E coli wild type; [13]) | MIC (E coli wild type; [14]) | MIC (E coli wild type; [15]) | MIC (E coli wild type; [16]) | Selectivity for Binding to the Bacterial Ribosome over the Mitochondrial Ribosome [3] | IC50 [3] | Selectivity for Binding to the Bacterial Ribosome over the Cytosolic Ribosome [4] | IC50 [4] | MIC (MRSA; [17]) | MIC (MRSA; [18]) | MIC (MRSA; [19]) | zone of inhibition at 25 nmol/disc (N. gonorrhoeae) | MIC (P aeruginosa) | IC50 [5] | also measured |
| --- | --- | --- | --- | --- | --- | --- | --- | --- | --- | --- | --- | --- | --- | --- | --- | --- | --- | --- | --- | --- | --- |
| CCNC1C(OC2C(N)CC(N)C(O)C2OC2OC(CO)C(OC3OC(CN)C(O)C(O)C3N)C2O)OC(CN)C(O)C1O (centres unmarked) [Compound 172, 2′-N-Ethyl-neomycin acetate salt] | 1 µg/mL | 111 | 0.5 µg/mL | 0.5 µg/mL | 1 µg/mL | 0.5 to 1 µg/mL | 0.5 to 1 µg/mL | 1 to 2 µg/mL | 1 µg/mL | 1 µg/mL | 850 | 11 µM | 3111 | 43 µM | 0.5 µg/mL | > 32 µg/mL | > 32 µg/mL | 9 mm | > 32 µg/mL | 0.01 µM | selectivity for the bacterial ribosome over mitochondrial (wild type, A1555G mutant) and cytosolic ribosomes, in words [5]: increased selectivity for the bacterial ribosome; MIC (M. smegmatis SZ380; [20]): < 0.063 µg/mL; MIC (M. smegmatis SZ380; [21]): < 0.0625 µg/mL; MIC [6]: 0.5 to 1 µg/mL; MIC (M. abscessus; [22]): 0.25 µg/mL; MIC (M. abscessus; [23]): 0.063 µg/mL; MIC (M. abscessus; [24]): 0.25 µg/mL; MIC (M. abscessus; [25]): 0.5 µg/mL; MIC [7]: 0.5 µg/mL; MIC [8, 26]: 0.5 µg/mL; MIC [8, 27]: 0.5 µg/mL; MIC [8, 28]: 1 µg/mL; MIC [8, 29]: 0.5 µg/mL; MIC [8, 30]: 1 µg/mL; MIC [8, 31]: 1 µg/mL |
| NCC1OC(OC2C(N)CC(N)C(O)C2OC2OC(CO)C(OC3OC(CN)C(O)C(O)C3N)C2O)CC(O)C1O (centres unmarked) [Compound 173, 2′-Deamino-neomycin acetate salt] | 1 µg/mL | 31 | 1 µg/mL | 0.5 to 1 µg/mL | 1 µg/mL | 1 µg/mL | 1 µg/mL | 2 µg/mL | 1 to 2 µg/mL | 2 µg/mL | 831 | 22 µM | 3188 | 85 µM | 1 µg/mL | 32 µg/mL | 32 µg/mL | 10 mm | > 64 µg/mL | 0.03 µM | antibacterial activity, in words (E coli wild type; MRSA and E coli, compared with the parent compound): little to no loss of antibacterial activity; selectivity for the bacterial ribosome over mitochondrial (wild type, A1555G mutant) and cytosolic ribosomes, in words [5]: increased selectivity for the bacterial ribosome; MIC (M. smegmatis SZ380; [20]): 0.25 µg/mL; MIC (M. smegmatis SZ380; [21]): 0.25 µg/mL; MIC [6]: 1 µg/mL; MIC (M. abscessus; [22]): 4 µg/mL; MIC (M. abscessus; [23]): 0.125 µg/mL; MIC (M. abscessus; [24]): 4 µg/mL; MIC (M. abscessus; [25]): 8 µg/mL; MIC [7]: 0.5 µg/mL; effect of the AAC(2′) resistance determinant, in words ([8]; AAC(2′)): overcomes the effect of AAC(2′); MIC [8, 26]: 1 µg/mL; MIC [8, 27]: 1 µg/mL; MIC [8, 28]: 8 µg/mL; MIC [8, 29]: 1 µg/mL; MIC [8, 30]: 1 µg/mL; MIC [8, 31]: 8 µg/mL |
| CNC1C(OC2C(N)CC(N)C(O)C2OC2OC(CO)C(OC3OC(CN)C(O)C(O)C3N)C2O)OC(CN)C(O)C1O (centres unmarked) [Compound 171, 2′-N-Methyl-neomycin acetate salt] | 1 µg/mL | 117 | 0.25 µg/mL | 0.5 µg/mL | 1 µg/mL | 0.5 µg/mL | 0.5 µg/mL | 1 µg/mL | 1 µg/mL | 1 µg/mL | 483 | 4.7 µM | 4000 | 37 µM | 0.25 to 0.5 µg/mL | > 32 µg/mL | > 32 µg/mL | 9 mm | > 64 µg/mL | 0.01 µM | selectivity for the bacterial ribosome over mitochondrial (wild type, A1555G mutant) and cytosolic ribosomes, in words [5]: increased selectivity for the bacterial ribosome; MIC (M. smegmatis SZ380; [20]): < 0.063 µg/mL; MIC (M. smegmatis SZ380; [21]): < 0.0625 µg/mL; MIC [6]: 0.5 to 1 µg/mL; MIC (M. abscessus; [22]): 0.25 µg/mL; MIC (M. abscessus; [23]): 0.063 µg/mL; MIC (M. abscessus; [24]): 0.25 µg/mL; MIC (M. abscessus; [25]): 0.5 µg/mL; MIC [7]: 0.5 µg/mL; MIC [8, 26]: 0.5 µg/mL; MIC [8, 27]: 0.5 µg/mL; MIC [8, 28]: 4 µg/mL; MIC [8, 29]: 0.5 µg/mL; MIC [8, 30]: 1 µg/mL; MIC [8, 31]: 4 µg/mL |
